This note sets out measurements from US20080319043A1, “3,6-Disubstituted Azabicyclo (3.1.0) Hexane Derivatives as Muscarinic Receptor Antagonists” (priority 2005, published 2008).

Each structure is given as a SMILES string.

Series [1] concerns isolated rat bladder. Put plainly: tissue or blood. As to conditions: read-out: pKb (converted).

What is called melting point is the temperature, or range, at which the solid turns liquid. The compound `O=C(NCC1C2CNCC21)C(O)(c1ccccc1)c1cccs1` (centres unmarked) [Compound No. 18, N-(3-Azabicyclo[3.1.0]hex-6-ylmethyl)-2-hydroxy-2-phenyl-2-(2-thienyl)acetamide] showed a melting point of 70 to 75 °C.

For the compound `Cc1cccc(C(O)(C(=O)OCC2C3CNCC32)c2cccc(C)c2)c1` (centres unmarked) [Compound No. 27, 3-Azabicyclo[3.1.0]hex-6-ylmethyl hydroxy[bis(3-methylphenyl)]acetate], the melting point fell in the range of 105 to 108 °C.

As to `Nc1cccc(CN2CC3C(CNC(=O)C(O)(c4ccccc4)C4CCCC4)C3C2)n1` (centres unmarked) [Compound No. 51, N-({3-[(6-Aminopyridin-2-yl)methyl]-3-azabicyclo[3.1.0]hex-6-yl}methyl)-2-cyclopentyl-2-hydroxy-2-phenylacetamide], the Kb in series [1] is 2.51 to 39.8 nM.

Regarding `CC1C2C(CNC(=O)C(O)(c3ccccc3)C3CCCC3)C2CN1Cc1ccccc1` (centres unmarked) [Compound No. 60, N-[(3-Benzyl-2-methyl-3-azabicyclo[3.1.0]hex-6-yl)methyl]-2-cyclopentyl-2-hydroxy-2-phenylacetamide], the Kb in series [1] is 2.51 to 39.8 nM.

Consider `O=C(NCC1C2CN(Cc3ccc4c(c3)OCO4)CC12)C(O)(c1ccccc1)C1CCCCC1` (centres unmarked) [Compound No. 80, N-{[3-(1,3-Benzodioxol-5-ylmethyl)-3-azabicyclo[3.1.0]hex-6-yl]methyl}-2-cyclohexyl-2-hydroxy-2-phenylacetamide], for which, in series [1], the Kb was 2.51 to 39.8 nM.
